Laboratory results reported in patent publication US7691842B2, “Tricyclic 6-alkylidene-penems as β-lactamase inhibitors” (Wyeth LLC, priority 2002, dated 2010).

Tests used:
class B enzyme CcrA = class B enzyme CcrA (Bacteroides fragilis, UniProt P25910); test: β-Lactamase inhibition, IC50 determination (nitrocefin, spectrophotometric); assay type: biochemical; conditions: enzyme 1.2 nM; 10 min preincubation at 25° C.; nitrocefin 50 μg/ml; 50 mM PO4, pH 7.0; read-out: IC50 (nM) Class B Ccr
Protocol: (§1) IC50 Determination for the Penem Inhibitor
(§2) β-Lactamase inhibitory activity of the penem inhibitors was determined spectrophotometrically as described by Bush et al., [Bush, K., Macalintal, C., Rasmussen, B. A., Lee, V. and Yang, Y. Antimicrobial Agents and Chemotherapy 1993, 37, 851]. Homogeneously purified class A β-lactamases TEM-1 from E. Coli and Imi-1 from Enterobacter cloacae, class B enzyme CcrA from Bacteroides fragilis and class C enzyme AmpC from Enterobacter cloaca were employed in the assay. The enzyme concentrations for TEM-1, Imi-1, CcrA and AmpC were 4.3, 7.1, 1.2 and 2.1 nM, respectively. A wide range of inhibitor concentrations were prepared in 50 mM PO4, pH 7.0 to include the possible IC50 values. The substrate used to initiate the enzyme reaction was nitrocefin at 50 μg/ml in the same buffer as the inhibitor. Initially the enzyme and inhibitor (20 μl each) were preincubated for 10 minutes at 25° C. prior to the addition of 160 μl volume of nitrocefin. Initial rates of hydrolysis were monitored for 5 minutes at 495 nm using a Molecular Devices Spectra Max 250 with kinetic protocol of SoftMax Program. Readings from the Spectra Max 250 were exported and transferred to Microsoft Excel. The percent of inhibition of each inhibitor concentration was calculated based on the control enzyme activity. The inhibitor concentration that caused a 50% reduction in the enzymatic activity (IC50) was determined graphically.

[1] = target: class A β-lactamase Imi-1 (Enterobacter cloacae, UniProt Q46991); test: as above; assay type: biochemical; conditions: enzyme 7.1 nM; 10 min preincubation at 25° C.; nitrocefin 50 μg/ml; 50 mM PO4, pH 7.0; read-out: IC50 (nM) Class A Imi
Protocol: as §1, §2

class C enzyme AmpC = class C enzyme AmpC (Enterobacter cloacae, UniProt P05364); test: biochemical; set-up: species or system Enterobacter cloaca; conditions: enzyme 2.1 nM; 10 min preincubation at 25° C.; nitrocefin 50 μg/ml; 50 mM PO4, pH 7.0; read-out: IC50 (nM) Class C AmpC
Protocol: as §1, §2

[2] = tested on: Clinical isolates that have been adapted to cause infection in mice; test: In vivo antibacterial protection (7 day survival of infected mice, ED50); set-up: species or system mice strain CD-1
From the text: In Vivo Antibacterial Protection
Female mice strain CD-1, approximately 18-22 grams, were received from Charles River Laboratories and quarantined 7 days prior to use. In addition, mice may be rendered neutropenic using cytoxan for particular studies.
Clinical isolates that have been adapted to cause infection in mice, are used in the experiment, including infections with strains of E. coli, K. pneumoniae, M. morganii, E. cloacae, S. marcescens, C. freundii, staphylococci, streptococci, P. aeruginosa and N. gonorrhoeae.
Mice are challenged by injecting 0.5 ml intraperitoneally or 0.05 ml intranasally of a predetermined bacterial inoculum suspended in broth, saline or hog gastric mucin (supplemented with dried bovine hemoglobin for N. gonorrhoeae). […] Antibacterial doses (dose concentration prepared by two fold serial dilutions of the antibiotic) are dissolved or suspended in 0.2% aqueous agar or methocel, phosphate buffered saline or an adjuvant are administered orally, subcutaneously or intravenously in the following manner: • a) Orally or subcutaneously: Dose volume of 0.5 ml administered ½ hr after infection. A second dose may be administered 3 hr. after infection for treatment of infections with more virulent organisms. • b) Intravenously: Dose volume of 0.2 ml, administered ½ hr. after infection. For the treatment of infections with more virulent organisms, more doses, up to 48 hr may be administered. (Intravenous dosing will not exceed 3 doses/24 hr period.) • c) Oral pretreatment: Under special circumstances, the pH of the stomach needs to be adjusted in order to increase the gastric stability of the antibiotic. For this purpose, 0.5 ml of phosphate buffered saline (pH7.8, 0.06M) (or specific approved adjuvant) is administered orally ½ hr after infection, followed 5 minutes later by 0.5 ml of antibiotic (also orally) contained in phosphate buffered saline (pH7.8, 0.06M). Animal Species
A detailed explanation as to the number of animals needed for the determination of in vivo efficacy follows: • A) Novel antibiotics are tested at 5 different dose levels with 5 mice per dose level at each of three routes of administration (oral, subcutaneous and intravenous). […] This would require 25 mice/route with 3 routes/antibiotic or 75 mice per novel compound tested. One to two novel antibiotics will be tested per experiment (75-150 mice) • B) The effectiveness of the new compound must be compared to that of a standard, or antibiotic of known effectiveness. Known or previously tested antibiotics are tested at 5 dose levels with 5 mice per dose level by a single route of administration, for a total of 25 mice/antibiotic. Usually 3-6 antibiotics will be tested per experiment. (75-150 mice). • C) Untreated controls—In each of the above tests, untreated animals are infected with 3 different concentrations of bacterial inoculum with 10 mice per concentration (30 mice total in each and every test). These untreated controls are used to determine and maintain the infection level between 10-100 LD50s as required for test to test comparison and validity. Determination of Protective Effects of Antibacterial Agents:
The protective effects of the antibacterial agent(s) are measured by the survival of the infected untreated as compared to the treated animals. For this determination, animals are observed for 7 days after treatment. A census of survivors is taken twice daily and at that time dead as well as moribund animals are removed. The 7 day survival ratio from three separate tests are pooled for estimation of median effective dose (ED50) by computerized program for probit analysis (Cleeland, R. and E. Squires. 1991. Evaluation of New Antimicrobials in Vitro and in Experimental Animal Infections. In Antibiotics in Laboratory Medicine”, 3rd. ed., edited by Victor Lorian. Willams and Wilkins Baltimore, Md. pp. 752-783). […]

[3] = target: class A β-lactamase TEM-1 (Escherichia coli, UniProt P62593); test: β-Lactamase inhibition, IC50 determination (nitrocefin, spectrophotometric); assay type: biochemical, E. Coli; conditions: enzyme 4.3 nM; 10 min preincubation at 25° C.; nitrocefin 50 μg/ml; 50 mM PO4, pH 7.0; read-out: IC50 (nM) Class A TEM-1
Protocol: as §1, §2

E. Coli GC2203 = test: Antimicrobial susceptibility testing, microbroth dilution MIC of piperacillin + inhibitor; assay type: cell-based; conditions: piperacillin combined with constant 4 μg/ml inhibitor; Inc: 35° C. for 18 hours
Protocol: (§3) Antimicrobial susceptibility testing. The in vitro activities of the antibiotics were determined by the microbroth dilution method as recommended by the National Committee for Clinical Laboratory Standards (NCCLS). (NCCLS. 2000. Methods for Dilution Antimicrobial Susceptibility Tests for Bacteria That Grow Aerobically; Approved Standards: M7-A5, vol. 19. National Committee for Clinical Laboratory Standards, Villanova, Pa.). Mueller-Hinton it broth (MHBII)(BBL Cockeysville, Md.), was used for the testing procedure. Microtiter plates containing 50 μl per well of two-fold serial dilutions of piperacillin combined with a constant amount (4 μg/ml) of a B-lactamase inhibitor (final concentration) were inoculated with 50 μl of inoculum to yield the appropriate density (10^5 CFU/ml) in 100 μl. The plates were incubated for 18-22 hours at 35° C. in ambient air.

E. Coli GC2844 = test: as above; assay type: cell-based; conditions: piperacillin combined with constant 4 μg/ml inhibitor; Inc: 35° C. for 18 hours
Protocol: as §3

E. Coli GC2920 (IRT-2) = test: as above; assay type: cell-based; conditions: piperacillin combined with constant 4 μg/ml inhibitor; Inc: 35° C. for 18 hours
Protocol: as §3

E. Coli GC2894 (Ampc) = test: as above; assay type: cell-based; conditions: piperacillin combined with constant 4 μg/ml inhibitor; Inc: 35° C. for 18 hours
Protocol: as §3

E. Coli GC2847 (TEM-1) = test: as above; assay type: cell-based; conditions: piperacillin combined with constant 4 μg/ml inhibitor; Inc: 35° C. for 18 hours
Protocol: as §3

S. aureus GC2216 = test: as above; assay type: cell-based; conditions: piperacillin combined with constant 4 μg/ml inhibitor; Inc: 35° C. for 18 hours
Protocol: as §3

[4] = tested on: S. Marcescens GC1781 Sme-1 + Ampc; test: as above; assay type: cell-based; conditions: piperacillin combined with constant 4 μg/ml inhibitor; Inc: 35° C. for 18 hours
Protocol: as §3

[5] = tested on: P. aeruginos GC1764 (Ampc); test: as above; assay type: cell-based; conditions: piperacillin combined with constant 4 μg/ml inhibitor; Inc: 35° C. for 18 hours
Protocol: as §3

E. Cloacae GC1477 (Ampc) = test: as above; assay type: cell-based; conditions: piperacillin combined with constant 4 μg/ml inhibitor; Inc: 35° C. for 18 hours
Protocol: as §3

[6] = Ratio of Piperacillin Inhibitor 4:1

class A β-lactamase TEM-1, sequence (P62593 24-286 limits assumed): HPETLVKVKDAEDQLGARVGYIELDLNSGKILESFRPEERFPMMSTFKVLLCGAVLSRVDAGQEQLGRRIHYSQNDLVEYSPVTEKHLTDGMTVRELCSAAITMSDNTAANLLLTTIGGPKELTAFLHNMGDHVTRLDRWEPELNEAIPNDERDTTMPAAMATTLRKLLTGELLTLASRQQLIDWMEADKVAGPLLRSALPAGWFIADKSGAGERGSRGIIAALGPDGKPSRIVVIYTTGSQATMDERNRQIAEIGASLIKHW
class A β-lactamase Imi-1, sequence (Q46991 entry or part of it): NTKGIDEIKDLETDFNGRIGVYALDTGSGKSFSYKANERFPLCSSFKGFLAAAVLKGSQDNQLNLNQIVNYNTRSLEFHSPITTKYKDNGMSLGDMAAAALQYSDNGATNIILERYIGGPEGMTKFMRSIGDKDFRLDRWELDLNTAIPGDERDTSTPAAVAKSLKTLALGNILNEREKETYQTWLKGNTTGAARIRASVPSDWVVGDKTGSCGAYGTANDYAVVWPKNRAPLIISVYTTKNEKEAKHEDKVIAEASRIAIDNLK
class C enzyme AmpC, sequence (P05364 21-381): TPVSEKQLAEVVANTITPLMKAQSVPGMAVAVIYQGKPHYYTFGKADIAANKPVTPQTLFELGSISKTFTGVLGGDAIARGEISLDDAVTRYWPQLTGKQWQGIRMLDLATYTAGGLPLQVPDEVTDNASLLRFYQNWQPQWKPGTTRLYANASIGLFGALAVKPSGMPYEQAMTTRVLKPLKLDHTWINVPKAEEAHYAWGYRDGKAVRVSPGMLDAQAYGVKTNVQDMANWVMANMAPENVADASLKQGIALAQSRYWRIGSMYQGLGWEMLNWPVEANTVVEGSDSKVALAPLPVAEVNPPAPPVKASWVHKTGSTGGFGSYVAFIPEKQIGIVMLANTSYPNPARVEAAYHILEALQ
class B enzyme CcrA, sequence (P25910 19-249): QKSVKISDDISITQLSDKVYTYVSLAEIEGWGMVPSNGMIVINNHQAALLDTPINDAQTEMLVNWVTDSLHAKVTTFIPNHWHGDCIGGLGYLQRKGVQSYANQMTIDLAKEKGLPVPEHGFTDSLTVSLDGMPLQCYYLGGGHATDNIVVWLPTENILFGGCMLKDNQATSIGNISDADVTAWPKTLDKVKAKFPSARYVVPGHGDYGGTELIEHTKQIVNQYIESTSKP

| Structure (SMILES) | IC50 (class B enzyme CcrA) [nM] | IC50 [1] [nM] | IC50 (class C enzyme AmpC) [nM] | ED50 [2, 6] [mg/kg] | IC50 [3] [nM] | Minimal Inhibitory Concentration E. Coli GC2203 (E. Coli GC2203) [µg/mL] | Minimal Inhibitory Concentration E. Coli GC2844 (E. Coli GC2844) [µg/mL] | Minimal Inhibitory Concentration E. Coli GC2920 (IRT-2) (E. Coli GC2920 (IRT-2)) [µg/mL] | Minimal Inhibitory Concentration E. Coli GC2894 (Ampc) (E. Coli GC2894 (Ampc)) [µg/mL] | Minimal Inhibitory Concentration E. Coli GC2847 (TEM-1) (E. Coli GC2847 (TEM-1)) [µg/mL] | Minimal Inhibitory Concentration S. aureus GC2216 (S. aureus GC2216) | Minimal Inhibitory Concentration S. Marcescens GC1781 Sme-1 + Ampc [4] [µg/mL] | Minimal Inhibitory Concentration P. aeruginos GC1764 (Ampc) [5] [µg/mL] | Minimal Inhibitory Concentration E. Cloacae GC1477 (Ampc) (E. Cloacae GC1477 (Ampc)) [µg/mL] | ED50 ([2]; Ratio of Piperacillin Inhibitor not given) [mg/kg] |
| --- | --- | --- | --- | --- | --- | --- | --- | --- | --- | --- | --- | --- | --- | --- | --- |
| O=C(O)C1=CS[C@@H]2/C(=C\c3cn4c(n3)sc3cc(Cl)ccc34)C(=O)N12 [Example 3] | 74 | 22 | 3.2 | 32 to 64 | 5.6 | 1 | 2 | 1 | 2 | 4 | <0.06 µg/mL | 1 | 8 | 16 |  |
| O=C(O)C1=CS[C@@H]2/C(=C\c3cn4c5c(sc4n3)CCC5)C(=O)N12 [Example 5, (5R),(6Z)-6-(6,7-dihydro-5H-cyclopenta[d]imidazo[2,1-b][1,3]thiazol-2-ylmethylene)-7-oxo-4-thia-1-azabicyclo[3.2.0]hept-2-ene-2-carboxylic acid] | 240 |  | 2.1 | 19.5 | 1.4 | 2 | 2 | 2 | 2 | 4 | <0.06 µg/mL | 0.5 | 1 | 16 |  |
| Cc1ccc2c(c1)sc1nc(/C=C3/C(=O)N4C(C(=O)O)=CS[C@H]34)cn12 [Example 7] | 103 | 106 | 1.1 | 137 | 2.6 | 1 | 2 | 2 | 4 | 4 | <0.06 µg/mL | 0.5 | 16 | 32 |  |
| O=C(O)C1=CS[C@@H]2/C(=C\c3cn4c5c(sc4n3)COCC5)C(=O)N12 [Example 15, (5R),(6Z)-6-(5,8-dihydro-6H-imidazo[2,1-b]pyrano[4,3-d][1,3]thiazol-2-ylmethylene)-7-oxo-4-thia-1-azabicyclo[3.2.0]hept-2-ene-2-carboxylic acid] | 200 | 100 | 1.5 |  | 2.8 | 2 | 2 | 2 | 2 | 4 | 0.05 µg/mL | 1 | 4 | 16 | 25 |
| O=C([O-])C1=CS[C@@H]2/C(=C\c3cc4oc5c(n4n3)CCCC5)C(=O)N12.[Na+] [Example 32, (5R,6Z)-7-oxo-6-(5,6,7,8-tetrahydropyrazolo[5,1-b][1,3]benzoxazol-2-ylmethylene)-4-thia-1-1-azabicyclo[3.2.0]hept-2-ene-2-carboxylic acid, sodium salt] | 180 | 110 | 5.6 |  | 2.6 | 2 | 2 | 4 | 32 | 16 | .05 µg/mL | 2 | 64 | 64 |  |
